Legend:
[1] = system: CT26 colon carcinoma cells; assay: PEP005-mediated cure of primaries plus peptide vaccine, CT26 colon carcinoma model; format: in vivo, Balb/c mice; details: Log rank p=0.011 (PEP005) and =0.013 (Vaccine)
Method: FIG. 14 is a graphical representation combining PEP005-mediated cure of primaries and cancer vaccination in the CT26 colon carcinoma model. (A) on d−3 […] mice were inoculated with 10^5 CT26 cells on the left flank (primary tumor) and 5×10^3 CT26 cells on the right flank (secondary tumor). On dO the primary CT26 tumors, which has reached 16.8+SD 3.2 mm^2 were cured with i.t. injections of 25 μg of PEP005 formulated in PEG400. On d3 and d10 mice received peptide vaccine containing the SPSYVYHQF [SEQ ID NO:5] epitope (n=9, PEP005+Vaccine). […] A third group was inoculated with secondary tumors only and received the vaccine (n=11, Vaccine), and the control group was given only secondary tumors and received no treatment (n=12, Controls). Animals were culled when the secondary tumors reached 100 mm^2.
CT26 colon carcinoma cells [CRL-2638] (Ali et al, 2002 supra) were grown s.c. in 6-10 week old female Balb/c mice.
The cancer vaccine comprised the gp70 A-1 peptide epitope SPSYVYHQF [SEQ ID NO:5] […]
To determine whether the effects seen in the B16 models could be repeated in a different tumor model and using a different cancer vaccine, four groups of Balb/c mice were established using the CT26 colon carcinoma model (Ali et al, J Immunol 168:3512-3519, 2002). […] The growth of secondary tumors was monitored as above.

[2] = system: B16-OVA-specific CD8^+ T-cells; assay: B16-OVA-specific CD8+ T-cell responses, ex vivo ELISPOT on d12; format: in vivo, C57BL/6 mice; details: d12 splenocytes, responses to SVYDFFVWL, KVPRNQDWL and SIINFEKL
Method: FIGS. 13A to C are graphical representations showing synergistic effects between PEP005-mediated cure of primaries and DC therapy on the growth of secondary tumors and on CD8^+ T-cell induction. (A) On d−3 C57BL/6 mice where inoculated with 2×10^6 B16-OVA cells on the right flank (primary tumor) and 2×10^4 B16-OVA cells on the left flank (secondary tumor). On d0 and d1 the primary B16-OVA tumors, which has reach 30.4 mm^2+SD6 were cured with i.t. injections of 25 μg of PEP005 formulated in PEG400. On d4 and d11 mice received DC therapy using DC2.4 cells pulsed with SVYDFFVWL [SEQ ID NO:1], KVPRNQDWL [SEQ ID NO:4] and SIINFEKL [SEQ ID NO:2] peptides, and ovalbumin (n=12, PEP005+DC). […] Animal groups were established and treated as in (A) except that on d12 mice were sacrificed and splenocytes analyzed in an ex vivo ELISPOT assay for responses to SVYDFFVWL [SEQ ID NO:1], KVPRNQDWL [SEQ ID NO:4] and SIINFEKL [SEQ ID NO:2] […]
To determine whether the synergistic effect of PEP005 and DC therapies seen in […] correlated with anti-cancer CD8^+ T-cell induction, a group of animals were established and treated as described for FIG. 13A except the animals were killed on d12 and their splenocytes analyzed for B16-OVA-specific CD8^+ T-cells responses. […] In the absence of treatment no significant B16-OVA-specific CD8^+ T-cell responses were detected (FIG. 13C, Controls).

## C/C=C(/C)C(=O)O[C@H]1C(C)=C[C@]23C(=O)[C@@H](C=C(CO)[C@@H](O)[C@]12O)[C@H]1[C@@H](C[C@H]3C)C1(C)C [PEP005, ingenol-3-angelate]
[1]
  growth of secondaries vs no treatment controls: significantly reduced the growth of secondaries
[2]
  B16-OVA-specific CD8+ T-cell responses: about 120 spots/10^6 splenocytes
